Patent US8722690B2, “Mesoionic pesticides” (E I du Pont de Nemours and Company, priority 2009, dated 2014)

What was measured:
Type in all cases: in vivo
[1] = system: potato leafhopper (Empoasca fabae); experiment: whole plant or invertebrate; settings: 144 h, 6 days, Soleil bean plant, very good to excellent levels of control efficacy; for mortality at 50 ppm: sprayed at 50 ppm; for mortality at 10 ppm: sprayed at 10 ppm
Procedure: For evaluating control of potato leafhopper (Empoasca fabae) through contact and/or systemic means, the test unit consisted of a small open container with a 5-6-day-old Soleil bean plant (primary leaves emerged) inside. White sand was added to the top of the soil and one of the primary leaves was excised prior to application.
Test compounds were formulated and sprayed at 50 ppm and/or 10 ppm, and the tests were replicated three times as described for Test A. After spraying, the test units were allowed to dry for 1 h before they were post-infested with 5 potato leafhoppers (18-21-day-old adults). A black, screened cap was placed on the top of each test unit, and the test units were held for 6 days in a growth chamber at 24° C. and 70% relative humidity. Each test unit was then visually assessed for insect mortality.

[2] = system: green peach aphid (Myzus persicae); experiment: whole plant or invertebrate; settings: 144 h, 6 days, radish plant; for mortality at 50 ppm: sprayed at 50 ppm
Text: For evaluating control of green peach aphid (Myzus persicae) through contact and/or systemic means, the test unit consisted of a small open container with a 12-15-day-old radish plant inside. This was pre-infested by placing on a leaf of the test plant 30-40 aphids on a piece of leaf excised from a culture plant (cut-leaf method). The aphids moved onto the test plant as the leaf piece desiccated. After pre-infestation, the soil of the test unit was covered with a layer of sand.
Test compounds were formulated and sprayed at 50 ppm and/or 10 ppm as described for Test A. The applications were replicated three times. After spraying of the formulated test compound, each test unit was allowed to dry for 1 h and then a black, screened cap was placed on top. The test units were held for 6 days in a growth chamber at 19-21° C. and 50-70% relative humidity. Each test unit was then visually assessed for insect mortality.

[3] = system: cotton melon aphid (Aphis gossypii); experiment: Test D: control of cotton melon aphid on cotton plant, contact and/or systemic; settings: for mortality at 50 ppm: sprayed at 50 ppm
Text: For evaluating control of cotton melon aphid (Aphis gossypii) through contact and/or systemic means, the test unit consisted of a small open container with a 6-7-day-old cotton plant inside. This was pre-infested with 30-40 insects on a piece of leaf according to the cut-leaf method described for Test C, and the soil of the test unit was covered with a layer of sand.
Test compounds were formulated and sprayed at 50 ppm and/or 10 ppm as described for Test C. The applications were replicated three times. After spraying, the test units were maintained in a growth chamber and then visually rated as described for Test C.

[4] = system: corn planthopper (Peregrinus maidis); experiment: whole plant or invertebrate; settings: 144 h, 6 days, maize plant, very good to excellent levels of control efficacy; for mortality at 10 ppm: sprayed at 10 ppm; for mortality at 50 ppm: sprayed at 50 ppm
Procedure: For evaluating control of corn planthopper (Peregrinus maidis) through contact and/or systemic means, the test unit consisted of a small open container with a 3-4-day-old maize plant (spike) inside. White sand was added to the top of the soil prior to application. Test compounds were formulated and sprayed at 50 ppm and/or 10 ppm, and replicated three times as described for Test A. After spraying, the test units were allowed to dry for 1 h before they were post-infested with ˜15-20 nymphs (18 to 21 day old) by sprinkling them onto the sand with a salt shaker. A black, screened cap was placed on the top of each test unit, and the test units were held for 6 days in a growth chamber at 22-24° C. and 50-70% relative humidity. Each test unit was then visually assessed for insect mortality.

O=c1c(-c2ccccc2)c([O-])[n+](Cc2cnc(Cl)s2)c2c3ccsc3ccn12 [Compound 356]
≥ 80%: mortality at 50 ppm [1]

CCn1ccn2c(=O)c(-c3ccccc3)c([O-])[n+](Cc3cnc(Cl)s3)c12 [Compound 333]
≥ 80%: mortality at 10 ppm ([2]; sprayed at 10 ppm) | mortality at 50 ppm [2] | mortality at 50 ppm [3] | mortality at 10 ppm [4] | mortality at 50 ppm [4] | mortality at 10 ppm [1] | mortality at 50 ppm [1]

CCn1ccn2c(=O)c(-c3cccc(C(F)(F)F)c3)c([O-])[n+](Cc3cnc(Cl)s3)c12 [Compound 340]
≥ 80%: mortality at 50 ppm [2] | mortality at 10 ppm ([3]; sprayed at 10 ppm) | mortality at 50 ppm [3] | mortality at 10 ppm [4] | mortality at 50 ppm [4] | mortality at 50 ppm [1]

O=c1c(-c2ccccc2F)c([O-])[n+](Cc2cnc(Cl)s2)c2c3ccsc3ccn12 [Compound 357]
≥ 80%: mortality at 50 ppm [2] | mortality at 10 ppm [1] | mortality at 50 ppm [1]
